In patent US7067112B2, “Cephaibols: novel antiparasitics from Acremonium tubakii, process for their production, and use thereof” (Sanofi-Aventis Deutschland GmbH, priority 1999, dated 2006):
Square brackets hold non-standard residues; d marks the D form. Peptide text beside a SMILES is read from it. Hyp = O=C(O)[CH]1C[CH](O)CN1; Phe(ol) = N[CH](CO)Cc1ccccc1; Iva = CC[C](C)(N)C(=O)O; Aib = CC(C)(N)C(=O)O

Assays:
[1] = stability (physicochemical properties); conditions: in neutral, mildly acidic and mildly alkaline medium
Text: (§1) The physicochemical and spectroscopic properties of the cephaibols according to the invention can be summarized as follows: […]

[2] = solubility (physicochemical properties)
Text: as §1

SMILES | stability [1] | solubility in polar organic solvents [2] | solubility in water [2]
CCC(C)C(NC(=O)C(C)(C)NC(=O)C(CCC(N)=O)NC(=O)C(C)(CC)NC(=O)C(Cc1ccccc1)NC(C)=O)C(=O)NC(C(=O)NC(C)(C)C(=O)NC(CC(C)C)C(=O)NC(C)(C)C(=O)N1CCCC1C(=O)NC(CCC(N)=O)C(=O)NC(C)(C)C(=O)N1CC(O)CC1C(=O)NC(C)(C)C(=O)N1CCCC1C(=O)NC(Cc1ccccc1)C(=O)NC(CO)C(=O)O)C(C)O (stereo not drawn) [Cephaibol Q, AcPhe-Iva-Gln-Aib-Ile-Thr-Aib-Leu-Aib-Pro-Gln-Aib-Hyp-Aib-Pro-Phe-Ser] (Ac-F[Iva]Q[Aib]IT[Aib]L[Aib]PQ[Aib][Hyp][Aib]PFS-OH; configuration not given here) | stable | soluble | only slightly soluble
CCC(C)C(NC(=O)C(C)(C)NC(=O)C(CCC(N)=O)NC(=O)C(C)(CC)NC(=O)C(Cc1ccccc1)NC(C)=O)C(=O)NC(C(=O)NC(C)(C)C(=O)NC(CC(C)C)C(=O)NC(C)(C)C(=O)N1CC(O)CC1C(=O)NC(CCC(N)=O)C(=O)NC(C)(C)C(=O)N1CC(O)CC1C(=O)NC(C)(C)C(=O)N1CCCC1C(=O)NC(Cc1ccccc1)C(=O)NC(CO)C(=O)O)C(C)O (stereo not drawn) [Cephaibol P, AcPhe-Iva-Gln-Aib-Ile-Thr-Aib-Leu-Aib-Hyp-Gln-Aib-Hyp-Aib-Pro-Phe-Ser] (Ac-F[Iva]Q[Aib]IT[Aib]L[Aib][Hyp]Q[Aib][Hyp][Aib]PFS-OH; configuration not given here) | stable | soluble | only slightly soluble
CCC(C)(NC(=O)C(CCC(N)=O)NC(=O)C1CC(O)CN1C(=O)C(C)(C)NC(=O)C(C)(C)NC(=O)C(CC(C)C)NC(=O)CNC(=O)C(C)(C)NC(=O)C(C)(C)NC(=O)C(C)(C)NC(=O)C(C)(C)NC(=O)C(Cc1ccccc1)NC(C)=O)C(=O)N1CC(O)CC1C(=O)NC(C)(C)C(=O)N1CCCC1C(=O)NC(CO)Cc1ccccc1 (stereo not drawn) [Cephaibol E, AcPhe-Aib-Aib-Aib-Aib-Gly-Leu-Aib-Aib-Hyp-Gln-Iva-Hyp-Aib-Pro-Phe-ol] (Ac-F[Aib][Aib][Aib][Aib]GL[Aib][Aib][Hyp]Q[Iva][Hyp][Aib]P[Phe(ol)]; configuration not given here) | stable | soluble | only slightly soluble
CCC(C)(NC(=O)C(CC(C)C)NC(=O)CNC(=O)C(C)(CC)NC(=O)C(C)(C)NC(=O)C(C)(C)NC(=O)C(C)(C)NC(=O)C(Cc1ccccc1)NC(C)=O)C(=O)NC(C)(C)C(=O)N1CC(O)CC1C(=O)NC(CCC(N)=O)C(=O)NC(C)(CC)C(=O)N1CC(O)CC1C(=O)NC(C)(C)C(=O)N1CCCC1C(=O)NC(CO)Cc1ccccc1 (stereo not drawn) [Cephaibol B, AcPhe-Aib-Aib-Aib-Iva-Gly-Leu-Iva-Aib-Hyp-Gln-Iva-Hyp-Aib-Pro-Phe-ol] (Ac-F[Aib][Aib][Aib][Iva]GL[Iva][Aib][Hyp]Q[Iva][Hyp][Aib]P[Phe(ol)]; configuration not given here) | stable | soluble | only slightly soluble
CCC(C)(NC(=O)C(CC(C)C)NC(=O)CNC(=O)C(C)(C)NC(=O)C(C)(C)NC(=O)C(C)(C)NC(=O)C(C)(C)NC(=O)C(Cc1ccccc1)NC(C)=O)C(=O)NC(C)(C)C(=O)N1CC(O)CC1C(=O)NC(CCC(N)=O)C(=O)NC(C)(C)C(=O)N1CC(O)CC1C(=O)NC(C)(C)C(=O)N1CCCC1C(=O)NC(CO)Cc1ccccc1 (stereo not drawn) [Cephaibol C, AcPhe-Aib-Aib-Aib-Aib-Gly-Leu-Iva-Aib-Hyp-Gln-Aib-Hyp-Aib-Pro-Phe-ol] (Ac-F[Aib][Aib][Aib][Aib]GL[Iva][Aib][Hyp]Q[Aib][Hyp][Aib]P[Phe(ol)]; configuration not given here) | stable | soluble | only slightly soluble
CC(=O)NC(Cc1ccccc1)C(=O)NC(C)(C)C(=O)NC(C)(C)C(=O)NC(C)(C)C(=O)NC(C)(C)C(=O)NCC(=O)NC(CC(C)C)C(=O)NC(C)(C)C(=O)NC(C)(C)C(=O)N1CC(O)CC1C(=O)NC(CCC(N)=O)C(=O)NC(C)(C)C(=O)N1CC(O)CC1C(=O)NC(C)(C)C(=O)N1CCCC1C(=O)NC(CO)Cc1ccccc1 (stereo not drawn) [Cephaibol D, AcPhe-Aib-Aib-Aib-Aib-Gly-Leu-Aib-Aib-Hyp-Gln-Aib-Hyp-Aib-Pro-Phe-ol] (Ac-F[Aib][Aib][Aib][Aib]GL[Aib][Aib][Hyp]Q[Aib][Hyp][Aib]P[Phe(ol)]; configuration not given here) | stable | soluble | only slightly soluble
CCC(C)(NC(=O)C(CC(C)C)NC(=O)C(C)NC(=O)C(C)(C)NC(=O)C(C)(C)NC(=O)C(C)(C)NC(=O)C(C)(C)NC(=O)C(Cc1ccccc1)NC(C)=O)C(=O)NC(C)(C)C(=O)N1CC(O)CC1C(=O)NC(CCC(N)=O)C(=O)NC(C)(CC)C(=O)N1CC(O)CC1C(=O)NC(C)(C)C(=O)N1CCCC1C(=O)NC(CO)Cc1ccccc1 (stereo not drawn) [Cephaibol A1, AcPhe-Aib-Aib-Aib-Aib-Ala-Leu-Iva-Aib-Hyp-Gln-Iva-Hyp-Aib-Pro-Phe-ol] (Ac-F[Aib][Aib][Aib][Aib]AL[Iva][Aib][Hyp]Q[Iva][Hyp][Aib]P[Phe(ol)]; configuration not given here) | stable | soluble | only slightly soluble
